{"source": "patent US11903912B2", "about": "“Composition for preventing and treating breast cancer including selenopsammaplin A as active ingredients” (Seoul National University R & DB Foundation, priority 2019, dated 2024)", "key": {"[1]": {"test_system": "A549 human lung cancer cells", "assay": "SRB cytotoxicity test, A549", "assay_type": "cell-based", "settings": "SRB assay, cultured 3 days", "description": "(§1) A cytotoxicity test was performed using synthesized selenopsammaplin A and derivatives thereof (Lee S K et al […] Chem Biol Interact 115:215-28).\n(§2) The cytotoxicity test was performed on a total of five representative cancer cell lines. The cytotoxicity of each compound was measured using an SRB assay method (human lung cancer cells, A549; human colon cancer cells, HCT116; human breast cancer cells, MDA-MB231; human liver cancer cells, SK-HEP-1; human gastric cancer cells, SNU638).\n(§3) Each cell line was sub-cultured once or twice using Roswell Park Memorial Institute (RPMI) medium 1640 (RPMI 1640) or Dulbecco's Modified Eagle's Medium (DMEM) containing 10% fetal bovine serum (FBS) inactivated by heat, 100 units/mL of penicillin, 100 μg/mL of streptomycin, and 250 ng/mL of amphotericin B at 37° C. for 1 week under a 5% CO2 condition. All cells were […] in liquid nitrogen, and then passaged three or more times to be used in the experiment. The effects of compounds on cell growth were measured using a sulforhodamine B (SRB) method (Lee et al (1998) Chemico-Biol Interact 115:215-228).\n(§4) Specifically, each human cancer cell line used in the present invention was sub-cultured in an RPMI medium containing 10% FBS, 1% PSF, and the like, and 10 μl of a sample dissolved in 10% DMSO and 190 μl (4-5×10^4 cells/ml) of the cell suspension were added to each well of a 96-well plate and cultured for 3 days. 190 μl of the cell suspension was added to at least 16 wells and cultured for 30 minutes, and used as a zero-day control. The cultured cells were fixed with 10% trichloroacetic acid (TCA) and then stained with an SRB solution, and the staining solution was dissolved with 10 mM Tris-base, and then absorbance at 515 nm was measured. Using the case of culturing in 10% DMSO as a control, cell viability according to each test material treatment was measured using Equation 1 below. Etoposide was used as a positive control. % Viability=(OD(sample)−OD(0-day))/(OD(10% DMSO)−OD(0-day))×100 [Equation 1]\n(§5) Assuming that a control not-treated with the sample was set at 100%, the values of sample-treated groups were expressed as percentage with respect to the control, and each test material treatment results were obtained as the mean±SEM of two or three tests. The IC50 value is the concentration of the test material for a 50% survival rate."}, "[2]": {"test_system": "MDA-MB231 human breast cancer cells", "assay": "SRB cytotoxicity test, MDA-MB231", "assay_type": "cell-based", "settings": "SRB assay, cultured 3 days", "description": "as §1, §2, §3, §4, §5"}, "[3]": {"test_system": "SK-HEP-1 human liver cancer cells", "assay": "SRB cytotoxicity test, SK-HEP-1", "assay_type": "cell-based", "settings": "SRB assay, cultured 3 days", "description": "as §1, §2, §3, §4, §5"}, "MDA-MB-231 cells [4]": {"test_system": "MDA-MB-231 cells", "assay": "Cancer cell migration (scratch) test", "assay_type": "cell-based, human", "settings": "MDA-MB-231, scratch, 50-400 nM, 24 hours", "description": "The triple-negative breast cancer cell line MDA-MB-231 was spread at a concentration of 2×10^6 cells/well on a DMEM medium containing 10% FBS in a 6-well plate, cultured at 37° C. for 24 hours under a 5% CO2 condition, and then washed once with phosphate-buffered saline (PBS). After scratching using a 200 μl tip, the cells were treated with 50-400 nM compound 2 and 400 nM psammaplin A, and then cultured for 24 hours. After washing once with PBS, the degree of migration of cells was photographed using a microscope, and the results thereof are illustrated in FIG. 5A. The degree of scratch healing compared to a control using ImageJ software is illustrated in FIG. 5B."}, "MDA-MB-231 cells [5]": {"test_system": "MDA-MB-231 cells", "assay": "Cancer cell invasion (Transwell) test", "assay_type": "cell-based, human", "settings": "MDA-MB-231, Transwell, 50-400 nM, 24 hours", "description": "The triple-negative breast cancer cell line MDA-MB-231 was spread at a concentration of 1×10^6 cells/well on a DMEM medium containing 10% FBS in a Transwell plate, cultured at 37° C. for 24 hours under a 5% CO2 condition, and then washed once with phosphate-buffered saline (PBS). Subsequently, the cells were treated with 50-400 nM compound 2 and 400 nM psammaplin A, and then cultured for 24 hours. After washing once with PBS, a membrane was attached to a slide glass, the degree of cell invasion was photographed using a microscope, and the results thereof are illustrated in FIG. 6A. The degree of invasion compared to a control using ImageJ software is illustrated in FIG. 6B."}, "[6]": {"test_system": "EMT markers in MDA-MB-231 cells", "assay": "Gene expression of EMT markers, real-time PCR", "assay_type": "cell-based, human", "settings": "MDA-MB-231, real-time PCR", "description": "To confirm the EMT-related gene expression levels of the human breast cancer cell line MDA-MB-231, an experiment was performed as follows. To examine the EMT marker expression levels of the human breast cancer cell line MDA-MB-231, breast cancer cells were spread at a concentration of 1×10^6 cells/well on an RPMI medium containing 10% FBS in a 100 mm culture dish, cultured at 37° C. for 24 hours under a 5% CO2 condition, and then washed twice with phosphate-buffered saline (PBS). Attached cells were washed twice with PBS, the TRI reagent (TRIzol (#15596-026, Invitrogen, Grand Island, N.Y.)) was used to disrupt the cells, and then CHCl3 was added thereto to extract RNA, followed by precipitation using isopropyl alcohol. The RNA precipitate was washed with 70% ethanol, dried in air, and then […] using nuclease-free water (AM9937, Ambion, Austin, Tex.), followed by heating at 55° C. for 10 minutes and heat treatment at 70° C. for 5 minutes, so that RNA was present in a single strand state. Total RNA was quantified using NanoDrop (ND-1000, Dae Myung Science, Seoul, Korea) and diluted to 1 μg/μL, and then cDNA was produced using Avian Myeloblastosis Virus (AMV) Reverse Transcriptase (M5108, Promega, Madison, Wis.) and an oligo(dT)15 primer (C110B, Promega, Madison, Wis.). A target gene was amplified in a MiniOpticon™ Real-time PCR Detection system (CFB-3120, Bio-Rad, Hercules, Calif.) using iQTM SYBR Green Supermix (#170-8880, Bio-Rad, Hercules, Calif.) and target gene-specific primers. Real-time PCR conditions were as follows: a PCR cycle of denaturation at 95° C. for 20 seconds; denaturation at 95° C. for 20 seconds; annealing at 56° C. for 20 seconds; and elongation at 72° C. for 30 seconds, and the PCR cycle was repeated 40 times, followed by the final process at 95° C. for 1 minute and at 55° C. for 1 minute. Ct values were determined by the method according to Livak K J et al ((1996) Method 25:402-408) using MJ Opticon Monitor software (Opticon Monitor 3.1.32, Bio-Rad, Hercules, Calif.), and calibrated with the Ct value of β-actin of the sample, and the mRNA expression of EMT markers in the breast cancer cell line is illustrated in FIGS. 7A to 7D."}}, "data": [{"smiles": "O=C(NCC[Se][Se]CCNC(=O)/C(Cc1ccccc1)=N/O)/C(Cc1ccccc1)=N/O", "note": "[Compound 2, (2E,2′E)-N,N′-(diselenediylbis(ethane-2,1-diyl))bis(2-(hydroxyimino)-3-phenylpropanamide)]", "values": [{"measurement": "IC50", "setting": "[1]", "value": 80, "unit": "nM"}, {"measurement": "IC50", "setting": "[2]", "value": 60, "unit": "nM"}, {"measurement": "IC50", "setting": "[3]", "value": 120, "unit": "nM"}, {"measurement": "migration of breast cancer cells", "setting": "MDA-MB-231 cells [4]", "value": "effectively suppressed"}, {"measurement": "invasion of breast cancer cells", "setting": "MDA-MB-231 cells [5]", "value": "effectively suppressed"}, {"measurement": "mRNA expression of E-cadherin (CDH1)", "setting": "[6]", "value": "increased"}, {"measurement": "mRNA expression of N-cadherin (CDH2)", "setting": "[6]", "value": "suppressed"}, {"measurement": "mRNA expression of ZEB1", "setting": "[6]", "value": "suppressed"}, {"measurement": "mRNA expression of vimentin (VIM)", "setting": "[6]", "value": "suppressed"}]}]}
